In ChEMBL document CHEMBL2202962, “The discovery of a novel series of glucokinase activators based on a pyrazolopyrimidine scaffold” (Bioorg Med Chem Lett, 2012):
pEC50, pIC50: −log10 of the molar value. In brackets after ≈: the same amount, converted by molar mass.

Tests used:
Hexokinase-4 = target: T1, Hexokinase-4 (Homo sapiens, UniProt P35557); assay: Activation of human glucokinase
T1 sequence (P35557 whole entry): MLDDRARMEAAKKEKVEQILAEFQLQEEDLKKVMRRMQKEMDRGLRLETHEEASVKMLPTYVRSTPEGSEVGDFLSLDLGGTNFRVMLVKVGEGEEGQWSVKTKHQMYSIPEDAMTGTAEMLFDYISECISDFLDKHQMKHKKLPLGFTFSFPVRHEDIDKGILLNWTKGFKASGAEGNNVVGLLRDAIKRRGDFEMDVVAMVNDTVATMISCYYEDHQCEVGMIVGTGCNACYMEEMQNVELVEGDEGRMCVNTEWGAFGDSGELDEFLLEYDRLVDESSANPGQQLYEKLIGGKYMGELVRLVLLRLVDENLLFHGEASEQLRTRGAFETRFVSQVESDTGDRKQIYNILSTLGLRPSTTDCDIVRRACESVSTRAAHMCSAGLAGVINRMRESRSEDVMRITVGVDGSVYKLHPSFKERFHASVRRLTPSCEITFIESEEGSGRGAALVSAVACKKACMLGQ

[1] = Octanol-water partition coefficient, log D of the compound by HPLC analysis
Liver microsomes = assay: Drug metabolism in human liver microsomes assessed as glutathione adduct formation relative to clozapine; format: ADME, Microsome
[2] = target: Voltage-gated inwardly rectifying potassium channel KCNH2 (Homo sapiens, UniProt Q12809)
[3] = Volume of distribution at steady state in rat; format: ADME, organism-based; conditions: in vivo, read-out: Vdss
Hepatocyte = assay: Intrinsic clearance in rat hepatocytes assessed per 10^6 cells; format: ADME, cell-based
[4] = Oral bioavailability in rat; format: ADME, organism-based; conditions: in vivo
[5] = Clearance in rat; format: ADME, organism-based; conditions: in vivo
[6] = Solubility of the compound

Sequence of Voltage-gated inwardly rectifying potassium channel KCNH2 (Q12809 whole entry): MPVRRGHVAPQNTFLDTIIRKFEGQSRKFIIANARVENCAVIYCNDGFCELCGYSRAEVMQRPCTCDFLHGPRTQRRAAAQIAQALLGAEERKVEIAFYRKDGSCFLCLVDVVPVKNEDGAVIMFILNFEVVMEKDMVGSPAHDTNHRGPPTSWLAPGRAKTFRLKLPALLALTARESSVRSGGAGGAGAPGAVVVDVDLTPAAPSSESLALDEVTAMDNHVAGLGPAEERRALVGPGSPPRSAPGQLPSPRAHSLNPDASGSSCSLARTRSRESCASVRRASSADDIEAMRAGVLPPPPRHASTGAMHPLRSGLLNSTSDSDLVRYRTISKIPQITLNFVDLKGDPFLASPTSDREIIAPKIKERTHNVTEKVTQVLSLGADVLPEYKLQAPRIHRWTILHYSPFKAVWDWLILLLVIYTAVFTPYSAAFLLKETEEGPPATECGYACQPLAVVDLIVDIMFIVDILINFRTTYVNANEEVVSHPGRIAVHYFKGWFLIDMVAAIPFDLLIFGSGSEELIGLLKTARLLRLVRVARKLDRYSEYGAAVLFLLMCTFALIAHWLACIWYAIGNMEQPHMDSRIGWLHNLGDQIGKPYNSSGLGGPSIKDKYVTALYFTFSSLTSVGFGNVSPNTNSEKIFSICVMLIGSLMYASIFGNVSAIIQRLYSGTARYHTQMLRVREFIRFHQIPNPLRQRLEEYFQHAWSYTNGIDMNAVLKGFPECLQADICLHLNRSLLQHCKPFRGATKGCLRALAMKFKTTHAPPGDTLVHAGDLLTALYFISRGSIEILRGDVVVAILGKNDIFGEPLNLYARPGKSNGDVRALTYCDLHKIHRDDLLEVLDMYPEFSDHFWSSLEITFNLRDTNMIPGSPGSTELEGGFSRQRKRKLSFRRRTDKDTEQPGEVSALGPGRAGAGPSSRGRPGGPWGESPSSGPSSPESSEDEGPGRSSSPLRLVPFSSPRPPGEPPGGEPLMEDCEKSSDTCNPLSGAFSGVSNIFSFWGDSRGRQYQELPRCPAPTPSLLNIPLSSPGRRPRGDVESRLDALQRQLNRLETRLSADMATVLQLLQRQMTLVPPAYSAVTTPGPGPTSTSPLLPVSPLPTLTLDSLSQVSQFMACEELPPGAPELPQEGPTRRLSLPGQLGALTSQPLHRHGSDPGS

Row | pEC50 (Hexokinase-4) | logD [1] | fold change (FC) (Liver microsomes) | SMILES | further results
1 | 5.50 | 4.7 | 5 | COCCOCCC(Sc1ncnc2c1cnn2-c1ccccc1Cl)C(=O)Nc1nc(C)cs1 (racemic) | –
2 | 7.30 | 3.9 | – | COCC[C@H](Oc1ncnc2c1cnn2-c1ccccc1Cl)C(=O)Nc1ccc(C)cn1 | pIC50 [2]: 4.66; Vd [3]: 3.2 L/kg; CLint (Hepatocyte): 35 µL/min/1e6 cells; bioavailability [4]: 53%; clearance [5]: 34 mL/min/kg; solubility [6]: 95 µM (≈ 43 µg/mL)
3 | < 4.00 | 4.3 | 5 | O=C(CSc1ncnc2c1cnn2-c1ccccc1Cl)Nc1ccccc1 | –
4 | – | – | – | COCC[C@H](Oc1ncnc2c1cnn2-c1ccccc1C(F)(F)F)C(=O)Nc1ccc(C)cn1 | CLint (Hepatocyte): 27 µL/min/1e6 cells
5 | 7.00 | 4.1 | – | COCCC(Oc1ncnc2c1cnn2-c1ccccc1Cl)C(=O)Nc1ccc(C)cn1 (racemic) | –
6 | 6.10 | 4.8 | 5 | COCCC(Sc1ncnc2c1cnn2-c1ccccc1Cl)C(=O)Nc1nc(C)cs1 (racemic) | –
7 | 4.80 | 2.5 | 5 | Cn1ccc(NC(=O)CSc2ncnc3c2cnn3-c2ccccc2Cl)n1 | –
8 | < 4.00 | 5.6 | 5 | Cc1csc(NC(=O)C(Sc2ncnc3c2cnn3-c2ccccc2Cl)c2ccccc2)n1 (racemic) | –
9 | < 4.00 | – | – | Cc1csc(NC(=O)CSc2ncnc3c2cnn3-c2ccccc2)n1 | –
10 | 6.90 | 5.7 | – | CCCCC(Oc1ncnc2c1cnn2-c1ccccc1Cl)C(=O)Nc1nc(C)cs1 (racemic) | –
11 | 6.70 | 3.5 | – | COCCC(Oc1ncnc2c1cnn2-c1ccccc1OC)C(=O)Nc1ccc(C)cn1 (racemic) | –
12 | < 4.00 | 2.2 | 5 | O=C(CSc1ncnc2c1cnn2-c1ccccc1Cl)Nc1ncccn1 | –
13 | 6.90 | 3.5 | – | COCC[C@H](Oc1ncnc2c1cnn2-c1ccccc1OC)C(=O)Nc1ccc(C)cn1 | pIC50 [2]: < 4.48; CLint (Hepatocyte): 132 µL/min/1e6 cells; solubility [6]: 86 µM (≈ 38.6 µg/mL)
14 | 5.60 | 3.8 | 5 | Cc1csc(NC(=O)CSc2ncnc3c2cnn3-c2ccccc2Cl)n1 | –
15 | 6.30 | 4.2 | 5 | Cc1ccc(NC(=O)CSc2ncnc3c2cnn3-c2ccccc2Cl)nc1 | –
16 | 6.20 | 6.4 | 5 | CCCCC(Sc1ncnc2c1cnn2-c1ccccc1Cl)C(=O)Nc1nc(C)cs1 (racemic) | –
17 | 5.80 | 3.2 | – | Cc1csc(NC(=O)COc2ncnc3c2cnn3-c2ccccc2Cl)n1 | –
18 | 6.50 | 4.2 | – | COCCC(Oc1ncnc2c1cnn2-c1ccccc1C)C(=O)Nc1ccc(C)cn1 (racemic) | –
